Results published in US20100034766A1, “Malodor Counteracting Compositions” (Givaudan SA, priority 2006, published 2010).
Where a name gives a salt, the structure may show the parent alone.

Legend:
[1] = Malodor reduction potential: headspace GC/MS determination of hexyl amine remaining; settings: for % Reduction of hexyl amine: 10 ul hexyl amine
Experimental: A 1 liter glass headspace collection jar had placed inside it a 25 ml stoppered glass container which contained 0.5 g of a test compound/mixture of compounds as indicated in Table 3. 10 ul of hexyl amine as a representative malodor was injected into the headspace jar. This was left for 15 minutes at 25° C. to equilibrate. One ml/minute of the headspace was drawn for one minute through a Tenax™ headspace trap. The trap was removed and analyzed to determine the initial concentration of the malodor. The glass stopper was removed from the container and the test component and the malodor were left in contact for 60 minutes at 25° C. One ml/minute of the headspace was drawn for one minute through a Tenax™ headspace trap to determine the amount of malodor remaining. The Tenax traps were thermally desorbed into an Agilent 6890 GC/MS to analyze the quantity of hexyl amine. The results are shown in Table 3 below: Following the same procedure described in Example 1, compounds according to formula (B) were mixed with an equal amount of citronellyl methylcrotonate. 0.5 g of the resulting mixture was tested against 10 ul hexyl amine as a representative malodor. Following the same procedure described in Example 1,5-(1-(3,3-dimethyl-cyclohexyl)ethoxy)-5-methylhexan-2-one (compound 10) was mixed with an equal amount of compounds of formula (A). 0.5 g of the resulting mixture was tested against 10 ul hexyl amine as a representative malodor.

[2] = Sensory test of axilla malodor reduction on cotton pads, expert panel, Labeled Magnitude Scale; settings: Example 4, Table 6; 0.4 g of 10% ethanol solution of test mixture on pad with 0.5 g of 1% synthetic axilla malodor; expert panel of 5, LMS
Experimental: Test mixtures of a compound of formula (A) and a compound of formula (B) in the ratio as given in Table 6 (10% ethanol solution) of each was prepared. 0.5 g of a 1% ethanol solution of synthetic axilla malodor was placed onto cotton pads. 0.4 g of the ethanol solution of the test mixtures, respectively, was placed on each axilla malodor treated cotton pad. One pad was left untreated as the control. Each pad was allowed to dry for 15 minutes. The test cotton pads were randomized, and an expert panel of 5 was used to determine the intensity of the malodor. Each panelist was asked to check a box that represented the strength of the axilla malodor using a Labeled Magnitude Scale (LMS) (Barry G. Green, Pamela Dalton, Beverly Cowart, Greg Shaffer, Krystyna Rankin and Jennifer Higgins. Evaluating the Labeled Magnitude Scale for Measuring Sensations of Taste and Smell. Chemical Senses. Vol. 21, pp 323-334, 1996).
The % reduction of malodor was calculated by:
% Reduction=(Mean LMS Control−Mean LMS Test)/Mean LMS Control
A Givaudan fragrance composition containing solvent dipropylene glycol at 20% (Composition A) and a fragrance composition (Composition B) wherein 10% dipropylene glycol are replaced by 10% of a mixture of compound 4 and geranyl:crotonate (1:9); were compared for MOC efficacy using the sensory test described in Example 4.

[3] = Example 1, Table 3, 0.5 g test compound/mixture, 60 minutes contact at 25° C., headspace
[4] = Example 3, Table 5, compound 10 mixed with equal amount of formula (A) compounds, 0.5 g

SMILES | % Reduction of hexyl amine [1, 3] [%] | % Reduction of hexyl amine [1, 4] [%] | effect on the effectiveness of the class A compound (hexyl amine reduction) ([1]; compound 4 in combination with a class A compound, Table 3) | % Reduction of axilla malodor [2] [%] | % Reduction of hexyl amine ([1]; Example 2, Table 4, formula (B) compounds mixed with equal amount of citronellyl methylcrotonate, 0.5 g) [%]
O=C(C=Cc1ccccc1)OCc1ccccc1 [benzyl cinnamate] | 23.5 | 62.1 |  |  | 
CCCCC(CC)COC(=O)C=Cc1ccc(OC)cc1 (stereo not drawn) [Octyl methyl cinnamate, 2-ethyl-hexyl-para-methoxy-cinnamate] | 54.1 | 58.7 |  |  | 
C/C=C/C(=O)OC/C=C(\C)CCC=C(C)C [geranyl crotonate] | 64.7 | 71.0 |  |  | 
CC(OC(C)(C)COC(=O)C1CC1)C1CCCC(C)(C)C1 (stereo not drawn) [compound 4, cyclopropanecarboxylic acid 2-[1-(3,3-dimethylcyclohexyl)ethoxy]-2-methylpropyl ester] |  |  | significantly increases the effectiveness |  | 
CCCCCCOC(=O)/C=C/C(=O)OCCCCCC [dihexyl fumarate] | 68.7 | 78.1 |  |  | 
CC(C)=CCCC(C)CCOC(=O)C=C(C)C (stereo not drawn) [citronellyl methylcrotonate, 3,7-dimethyloct-6-enyl 3-methylbut-2-enoate] | 53.6 |  |  | 51.0 | 61.3
